From patent US20040142888A1, “Modulators of RabGGT and methods of use thereof” (priority 2002, published 2004)
Where two headings read alike, the source gives them in different places.

Key:
[1] = system: HCT-116 human colon tumor cells; assay: Compound-induced apoptosis in HCT-116 human colon tumor cells (microscopy for morphological markers); format: cell-based
Experimental: HCT-116 human colon tumor cells obtained from the American Type Culture Collection (ATCC) were grown in McCoy's 5A culture medium with 10% heat inactivated FBS, 1× penicillin/streptomycin, and 25 mM HEPES, in an incubator maintained at 37° C. with CO2 at 6-7% and humidity at 95%. Cells were treated with compounds using a dose range from 0.04 μM to 100 μM. After 48 hours they were examined by microscopy for signs of cell rounding, vaccuolation, and nuclear condensation. These are morphological markers associated with apoptosis, and are consistent with results obtained by performing an assay for nucleosomal DNA, or a TdT-mediated dUTP nick end labeling (TUNEL) assay.
The concentrations cited are the minimal concentration required to induce these morphological changes in 50% of the treated cells.

rat RabGGT = molecular target: T1, rat RabGGT (Rattus norvegicus, UniProt Q08602+Q08603); assay: RabGGT filter binding assay: transfer of (3H)geranylgeranyl from 3H-GGPP to recombinant Rab3A; format: biochemical; conditions: for IC90/IC50: RabGGT inhibition; for RabGGT inhibition: rat RabGGT enzyme
T1 construct: purchased Calbiochem 345855; host or cells: Sf9/baculovirus
T1 sequence (Q08602 1-567): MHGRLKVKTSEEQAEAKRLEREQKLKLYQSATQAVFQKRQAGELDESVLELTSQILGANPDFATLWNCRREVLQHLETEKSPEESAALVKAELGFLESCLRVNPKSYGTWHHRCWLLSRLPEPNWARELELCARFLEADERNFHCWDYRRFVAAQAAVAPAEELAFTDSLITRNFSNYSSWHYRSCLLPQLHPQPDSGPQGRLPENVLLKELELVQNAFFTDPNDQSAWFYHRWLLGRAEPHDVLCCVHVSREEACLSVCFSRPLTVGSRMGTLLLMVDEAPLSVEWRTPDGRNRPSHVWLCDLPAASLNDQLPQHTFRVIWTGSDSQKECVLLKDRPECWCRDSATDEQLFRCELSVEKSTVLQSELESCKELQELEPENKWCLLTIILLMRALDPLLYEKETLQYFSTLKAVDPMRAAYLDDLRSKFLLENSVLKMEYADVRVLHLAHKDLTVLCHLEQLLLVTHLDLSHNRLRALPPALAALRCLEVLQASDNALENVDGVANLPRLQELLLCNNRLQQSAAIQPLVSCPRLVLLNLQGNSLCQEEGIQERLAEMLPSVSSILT
T1 sequence (Q08603 1-331): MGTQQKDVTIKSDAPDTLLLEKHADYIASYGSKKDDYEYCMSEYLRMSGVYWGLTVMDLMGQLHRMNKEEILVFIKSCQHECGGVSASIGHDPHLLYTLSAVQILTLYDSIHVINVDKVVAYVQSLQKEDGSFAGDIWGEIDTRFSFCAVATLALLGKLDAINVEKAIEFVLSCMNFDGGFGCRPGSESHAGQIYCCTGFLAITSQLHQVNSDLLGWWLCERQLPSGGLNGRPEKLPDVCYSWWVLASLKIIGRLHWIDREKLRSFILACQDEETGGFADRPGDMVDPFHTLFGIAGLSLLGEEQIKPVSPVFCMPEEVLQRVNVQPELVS
From the text: The effect of compounds 7A through 7T on RabGGT activity was quantified using a filter binding assay that measures the transfer of (3H) geranylgeranyl groups (GG) from all-trans-(3H)geranylgeranyl pyrophosphate (3H-GGPP) to recombinant Rab3A protein (Shen & Seabra, 1996, JBC, 271 :3692; Armstrong et al., 1996, Methods in Enzymology 257:30). Modifications to published protocols are noted explicitly below.
Recombinant rat RabGGT, expressed using the Sf9/baculovirus system, was purchased from Calbiochem (cat. no. 345855). Recombinant unprenylated human Rab3A was obtained from Panvera.(cat. no. P2173). Human REβ-1, expressed in Sf9 cells, was obtained from Calbiochem (cat. no. 554000). Tritium labeled geranylgeranyl pyrophosphate was purchased from Amersham Pharmacia Biotech (15 Ci/mmol). Unlabeled GGPP was purchased from Sigma (cat. no. G-6025).
The reaction buffer contained 50 mM HEPES pH7.4, 5 mM MgCl2, 1 mM DTT, 1 mM Nβ-40. Solutions of RabGGT, Rab3A, REP-1, and GGPP were prepared in this reaction buffer. Final protein concentrations in the reaction mixture were modified from the published protocols, with the standard reaction mixture containing 2 μM Rab3A, 0.2 μM REP-1, 5 μM unlabeled GGPP, 0.5 μM labeled GGPP, and 10-50 nM RabGGT in a total volume of 20 μl. The specific activity of (3H)GGPP used in the assay was 3000 dpm/pmol.
Compounds were prepared as 50 mM stocks in DMSO and diluted to give an appropriate concentration for the assay as a 20% DMSO stock. 2 μl of the diluted compound stock was added to a 20 μl reaction to give a final DMSO concentration of 2% in the assay.
The order of addition of reagents was altered from the published protocols. Reaction mixtures were prepared by sequentially adding Rab3A and REP-1 proteins to the reaction buffer, followed by compound and RabGGT enzyme to a volume of 18 μl. Reactions were initiated by the addition of 2 μl of a solution that contained unlabeled and labeled GGPP. After a 30 minute incubation at 37° C., 1 ml of stop solution (1 volume of concentrated HCl acid with 9 volumes of ethanol) was added and mixed. The solution was then incubated at room temperature for 1 hour to completely precipitate proteins.
The precipitate was collected by vacuum filtration using a vacuum filtration manifold (Millipore model 1225) onto 25 mm GF/A filters (Whatman) that were prewetted with ethanol. The tubes were rinsed twice with 1 ml ethanol which was also poured over the filters. Each filter was subsequently washed three times with 2 mls of ethanol per wash, dried under vacuum, and then put in scintillation vials. Four milliliters of scintillation fluid was added and the radioactivity was quantified on a scintillation counter. Several types of blank reactions were conducted including withholding the enzyme, the substrate, or the accessory protein REP-1, or replacing the compound solution with a 20% DMSO solution. For the substrate titration experiment, the equimolar amounts of Rab3A and REP-1 were mixed and preincubated for 30 min at room temperature before addition of the enzyme.
The data was analyzed by non-linear regression analysis methods using the program PRIZM (GraphPad Software, Inc.). Inhibition constants were obtained by analyzing the data using the one site competition equation provided by the software. FIG. 7 presents a typical data series obtained for compound 7B using these methods.

[2] = molecular target: Farnesyl Transferase (FT) (Homo sapiens, UniProt P49354+P49356); assay: Biochemical assay for inhibition of farnesyl transferase (FT)
Experimental: Biochemical assays for inhibition of FT were performed as described by Mann et al. (1995, Drug Dev. Res. 34: 121) with the modifications described by Ding et al. (1999, J. Med. Chem., 42:5241)

HCT116 cells = assay: 3H-thymidine incorporation (proliferation) assay in HCT116 cells after siRNA treatment against RabGGT subunits; format: cell-based, human; set-up: concentration or dose not given beside the values; conditions: 72 hours after siRNA/Lipofectamine 2000 treatment, average of three replicates
Experimental: HCT-116 human colon tumor cells obtained from the ATCC were grown in RPMI culture medium supplemented with 10% heat inactivated FBS, 1× penicillin/streptomycin, and 25 mM HEPES, in an incubator maintained at 37° C. with CO2 at 6% and humidity at 95%. HCT116 cells were plated in 96 well plates at 2000 cells/100 μl media per well and incubated for 24 hours before RNAi treatment. For treatment, a 2× solution of Lipofectamine 2000/siRNA complexes was generated for each individual siRNA as follows. The siRNA oligonucleotides (Xeragon; Huntsville Ala.) were diluted to a final concentration of 1 μM in Optimem serum-free media (Invitrogen; Carlsbad, Calif.) and incubated for 5 minutes at room temperature. The Lipofectamine 2000 reagent (Invitrogen; Carlsbad, Calif.) was diluted to 10 μg/ml in Optimem serum-free media and incubated for 5 minutes at room temperature. Equal volumes of the 1 μM siRNA oligonucleotides and the 10 μg/ml Lipofectamine 2000 were mixed together, giving a 5× stock of siRNA/Lipofectamine 2000 complexes. After incubation for 20 minutes at room temperature, 1.5 volumes of RPMI medium containing 10% heat inactivated FBS was added to the 5× stock, resulting in a 2× stock of siRNA/Lipofectamine 2000 complexes. For RNAi treatment, 100 μof the 2× stock of siRNA/Lipofectamine 2000 complexes was added to each well containing HCT116 cells, to give a final concentration of 1× siRNA/Lipofectamine 2000 complexes. Cells were incubated for 72 hours prior to the proliferation assay. Three replicates were performed for each siRNA treatment.
The effect of RNAi treatment directed against RabGGT subunits on cellular proliferation was assayed using a 3H-thymidine incorporation assay. The principle of this assay is as follows: During S-phase of the cell cycle, cells incorporate thymidine into the new strand of genomic DNA. Tritiated thymidine can be added to the culture medium and will be incorporated into genomic DNA in proportion to the number of rounds of DNA synthesis that occur. Incorporation can be quantified following lysis of the cells and removal of unincorporated nucleotides. RNAi-treated cells prepared as described above were assayed for 3H-thymidine uptake as follows. The cells were pulsed with 3H-thymidine by addition of 20 μl of a 44 μCi/ml solution of 3H-thymidine in RPMI to each well, to obtain a final concentration of 3H-thymidine of 4 μCi/ml. After incubation for 3 h at 37° C., the medium was removed and 50 μl of 0.25% trypsin in phosphate buffered saline (140 mM NaCl, 2.7 mM KCl, 10 mM Na2HPO4 and 1.8 mM KH2PO4, pH 7.4) was added. After 10 minutes, the contents of the wells were harvested onto a 96-well GF/C filter plate (Whatman; Clifton N.J.) using a Hewlett Packard Filtermate. The filter plate was washed 10 times with distilled water, then left to dry overnight. After the addition of 50 μl of Microscint-20 scintillation fluid (Perkin Elmer; Boston, Mass.) per well, the filter plates were sealed and the amount of radioactivity retained on the filter was determined by scintillation counting. The average of the three replicate samples is reported.

[3] = HCT-116, 48 h, HCT116 cells, 48 hours, minimal concentration inducing apoptotic morphological changes in 50% of treated cells, read-out: 50% APOPTOTIC
[4] = HCT-116, minimum concentration required to achieve apoptosis of 50% of the HCT116 cells (Table 7), read-out: HCT116 50% apoptosis
[5] = HCT-116, minimum concentration required to achieve apoptosis of 50% of the HCT116 cells (Table 8), read-out: HCT116 50% apoptosis
[6] = recombinant rat RabGGT, Rab3A, REP-1, 30 minute at 37° C.

Row | Compound | EC50 [1, 3] | EC50 [1, 4] | EC50 [1, 5] | IC90/IC50 (rat RabGGT) | IC50 (rat RabGGT; Table 7) | IC50 (rat RabGGT; [6]) | IC90 (rat RabGGT; [6]) | IC50 [2] | IC90 [2] | RabGGT inhibition (rat RabGGT) | IC90 (rat RabGGT; Table 7) | 3H-thy incorp. % of control (HCT116 cells)
1 | C=C(C)CN(C1Cc2cc(C#N)ccc2N(Cc2cncn2C)C1)S(=O)(=O)N1CC=CC1 (stereo not drawn) [Compound 7O] | 10 µM | 10 µM | 10 µM | 19 | 58 nM | 58 nM | 1120 nM | 1.4 nM | 8 nM |  |  | 
2 | Cn1cc(S(=O)(=O)N(Cc2ccsc2)C2Cc3cc(C#N)ccc3N(Cc3cncn3C)C2)cn1 (stereo not drawn) [Compound 7N] | 3.7 µM | 3.3 µM | 3.3 µM | 12 | 25 nM | 25 nM | 309 nM | 0.7 nM | 9 nM |  |  | 
3 | Cn1cncc1CN1CC(NS(=O)(=O)c2ccccn2)Cc2cc(C#N)ccc21 (stereo not drawn) [Compound 7S] | 50 µM | 50 µM | 50 µM | 19 | 73 nM | 73 nM | 1400 nM | 15.5 nM | 255 nM |  |  | 
4 | Cn1cncc1CN1CC(N(CC(=O)OC(C)(C)C)S(=O)(=O)c2ccccn2)Cc2cc(C#N)ccc21 (stereo not drawn) [Compound 7R] | 30 µM | 30 µM | 30 µM | 19 | 541 nM | 541 nM | 10100 nM | 1.5 nM | 9 nM | weaker inhibitors |  | 
5 | Cc1nc(CN(C2Cc3cc(C#N)ccc3N(Cc3cncn3C)C2)S(=O)(=O)c2ccccn2)cs1 (stereo not drawn) [Compound 7T] | 90 µM | 90 µM | 90 µM | >10 | 1430 nM | 1430 nM | > 15000 nM | 3.7 nM | 48 nM | weaker inhibitors | > 15000 nM | 
6 | Cn1cnc(S(=O)(=O)N(Cc2ccsc2)C2Cc3cc(C#N)ccc3N(Cc3cncn3C)C2)c1 (stereo not drawn) [Compound 7Q] | 30 µM | 30 µM | 30 µM |  | 47 nM | 47 nM | 2300 nM | 0.6 nM | 6 nM |  |  | 
7 | Beta-2: siRNA against human RabGGT-beta, coding bases 662-685, SEQ ID NO:09 / NO:10 (chain 1 CGACAAUUACCCUCAGGCGTT; chain 2 CGCCUGAGGGUAAUUGUCGTT; chemistry not given here) |  |  |  |  |  |  |  |  |  |  |  | 39%
8 | Alpha-3: siRNA against human RabGGT-alpha, coding bases 1309-1332, SEQ ID NO:05 / NO:06 (chain 1 GAUGGAGUAUGCCGAGGUGTT; chain 2 CACCUCGGCAUACUCCAUCTT; chemistry not given here) |  |  |  |  |  |  |  |  |  |  |  | 63%
9 | Cn1cncc1CN1CC(N(Cc2ccsc2)S(=O)(=O)c2ccccn2)Cc2cc(C#N)ccc21 (stereo not drawn) [Compound 7P] | 25 µM | 25 µM | 25 µM |  | 84 nM | 84 nM | 2160 nM | 0.7 nM | 4 nM |  |  | 
